Test [1] addresses T1, NaV1.7 (Homo sapiens, UniProt Q15858).
T1 construct: expressed in transfected cells; tetracycline-inducible, kept under hygromycin and blasticidin
Kind of test: Automated patch clamp (Qube 384), internal block of NaV1.7 in HEK293 cells. It counts as cell-based. Conditions: compound in internal solution, read-out: Nav1.7 Intracellular Inhibition (IC50). In short, it runs like this: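 Tetracycline-induced HEK293 cells, 22° C; CsF-based internal (pH 7.3), compound dissolved in internal solution, exchanged after baseline 5 Hz pulsing (−100 to −20 mV, 10 ms), then recorded 10 min. Remaining current averaged from last 3 points versus Step 2 baseline, rundown-corrected with non-drug cells; IC50 from Hill fit.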
(Patch clamp records ionic current or voltage across a cell membrane.)

In test [2] the target is T1, NaV1.7. Kind of test: Automated patch clamp (Qube 384), external block of NaV1.7 in HEK293 cells. It counts as cell-based. Conditions: compound in external solution, read-out: Nav1.7 Extracellular Inhibition (IC50). In short, it runs like this: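 Tetracycline-induced HEK293 cells; whole-cell patch clamp at 22 degrees, compound in external solution (pH 7.4; CsF internal). Held at −100 mV with 10 ms pulses to −20 mV at 5 Hz, recorded 10 min after compound exchange. Control-corrected; IC50 from Hill fit.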

This is an account of results in patent publication US10934263B2, “Charged ion channel blockers and methods for use” (Nocion Therapeutics, Inc., priority 2019, dated 2021).

Values joined by “and” are separate entries in the source; they are usually repeats but may differ in a detail not shown here. Identical values can stand only once.

T1 sequence (Q15858 whole entry): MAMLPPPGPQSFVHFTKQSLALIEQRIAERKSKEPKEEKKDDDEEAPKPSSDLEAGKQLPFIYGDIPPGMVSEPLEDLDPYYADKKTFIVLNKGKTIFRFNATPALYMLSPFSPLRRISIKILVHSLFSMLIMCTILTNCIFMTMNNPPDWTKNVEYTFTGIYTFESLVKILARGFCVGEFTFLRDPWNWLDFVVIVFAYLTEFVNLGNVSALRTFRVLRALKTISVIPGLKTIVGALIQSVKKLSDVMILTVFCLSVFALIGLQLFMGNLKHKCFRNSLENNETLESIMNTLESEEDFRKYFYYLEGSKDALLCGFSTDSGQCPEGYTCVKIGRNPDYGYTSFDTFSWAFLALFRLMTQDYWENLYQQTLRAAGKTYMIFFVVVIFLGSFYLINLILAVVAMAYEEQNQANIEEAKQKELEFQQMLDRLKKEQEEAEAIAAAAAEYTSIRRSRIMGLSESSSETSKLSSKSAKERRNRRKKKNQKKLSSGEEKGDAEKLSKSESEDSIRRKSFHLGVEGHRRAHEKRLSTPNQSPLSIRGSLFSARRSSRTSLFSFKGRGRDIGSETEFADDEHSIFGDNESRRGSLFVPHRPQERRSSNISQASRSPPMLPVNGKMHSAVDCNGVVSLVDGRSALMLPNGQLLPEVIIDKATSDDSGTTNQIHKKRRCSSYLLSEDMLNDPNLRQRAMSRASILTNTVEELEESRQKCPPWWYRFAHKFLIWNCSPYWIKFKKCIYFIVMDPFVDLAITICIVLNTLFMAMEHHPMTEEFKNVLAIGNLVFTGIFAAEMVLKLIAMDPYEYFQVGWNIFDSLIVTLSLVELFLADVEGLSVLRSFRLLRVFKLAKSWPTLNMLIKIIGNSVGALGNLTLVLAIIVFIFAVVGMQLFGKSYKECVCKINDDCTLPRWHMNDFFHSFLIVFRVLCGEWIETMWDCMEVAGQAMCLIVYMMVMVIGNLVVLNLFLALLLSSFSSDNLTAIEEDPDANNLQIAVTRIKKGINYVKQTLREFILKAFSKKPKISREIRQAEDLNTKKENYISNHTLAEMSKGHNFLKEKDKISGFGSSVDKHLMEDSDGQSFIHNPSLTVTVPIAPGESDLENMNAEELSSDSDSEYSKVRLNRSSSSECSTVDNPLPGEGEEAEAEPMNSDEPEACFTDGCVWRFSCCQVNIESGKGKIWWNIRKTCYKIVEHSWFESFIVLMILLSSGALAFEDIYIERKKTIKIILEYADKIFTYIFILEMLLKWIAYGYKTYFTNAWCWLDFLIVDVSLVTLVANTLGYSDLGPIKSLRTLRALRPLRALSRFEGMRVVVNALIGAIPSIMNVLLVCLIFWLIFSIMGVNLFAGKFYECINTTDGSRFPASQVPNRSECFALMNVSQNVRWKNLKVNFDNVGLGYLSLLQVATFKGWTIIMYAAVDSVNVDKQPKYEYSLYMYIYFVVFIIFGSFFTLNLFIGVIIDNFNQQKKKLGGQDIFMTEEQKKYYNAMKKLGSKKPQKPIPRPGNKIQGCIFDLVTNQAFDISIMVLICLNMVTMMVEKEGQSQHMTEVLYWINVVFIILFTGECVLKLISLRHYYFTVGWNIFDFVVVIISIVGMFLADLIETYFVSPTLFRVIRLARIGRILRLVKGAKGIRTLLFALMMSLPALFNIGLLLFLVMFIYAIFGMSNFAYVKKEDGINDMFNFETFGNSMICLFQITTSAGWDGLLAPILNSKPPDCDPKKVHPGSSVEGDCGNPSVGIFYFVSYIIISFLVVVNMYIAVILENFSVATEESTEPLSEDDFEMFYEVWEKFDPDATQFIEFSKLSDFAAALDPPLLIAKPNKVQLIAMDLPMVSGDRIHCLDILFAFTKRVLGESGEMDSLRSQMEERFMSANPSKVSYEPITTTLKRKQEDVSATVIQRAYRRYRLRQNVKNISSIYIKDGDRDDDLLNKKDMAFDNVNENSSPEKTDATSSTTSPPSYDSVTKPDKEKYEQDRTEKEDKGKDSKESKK

As to `Cc1cccc(C)c1NC(=O)C[n+]1cc(OCc2ccccc2)ccc1Cl` [Compound 103], the IC50 (as a rule, the concentration that gives 50% inhibition) fell in the range of 3 to 10 µM in test [1] and 30 to 100 µM in test [2].
As to `Cc1cccc(C)c1NC(=O)C[n+]1cccn1C1CCCC1` [Compound 71], the IC50 in test [1] is < 1 µM; in test [2], > 100 µM.
For `CCCn1c(C)cc[n+]1CC(=O)Nc1c(C)cccc1C` [Compound 81], in that order: 1 to 3 µM and > 100 µM.
Taken in the same sequence, the figures for `Cc1cccc(C)c1NC(=O)C[n+]1cc2ccccc2n1C` [Compound 54] were 3 to 10 µM and 30 to 100 µM.
For `Cc1cccc(C)c1NC(=O)C[n+]1cccn1CC#N` [Compound 69], in that order: 10 to 30 µM and > 100 µM.
In the case of `CCCn1ccc(C)[n+]1CC(=O)Nc1c(C)cccc1C` [Compound 101], the half-inhibitory concentration (IC50) is 3 to 10 µM in test [1] and > 100 µM in test [2].
Taken in the same sequence, the figures for `COc1cc(OC)c[n+](CC(=O)Nc2c(C)cccc2C)c1` [Compound 98] were 1 to 3 µM and > 100 µM.
Taken in the same sequence, the figures for `Cc1cccc(C)c1NC(=O)C[n+]1c(C)cc(C)n1C` [Compound 94] were < 1 µM and 30 to 100 µM.
Take `Cc1cccc(C)c1NC(=O)C[n+]1cccc(Cc2ccccc2)c1` [Compound 34]: the results for the concentration for half-maximal inhibition (IC50) in test [1] and in test [2] were < 1 µM and < 10 µM, respectively.
Taken in the same sequence, the figures for `Cc1cccc(C)c1NC(=O)C[n+]1cccn1CC1CC1` [Compound 73] were 1 to 3 µM and > 100 µM.
For `CCOC(=O)CCCn1ccc[n+]1CC(=O)Nc1c(C)cccc1C` [Compound 75], in that order: < 1 µM and > 100 µM.
On to `Cc1cccc(C)c1NC(=O)Cn1ccc[n+]1CC(=O)Nc1c(C)cccc1C` [Compound 109], for which the concentration for half-maximal inhibition (IC50) in test [1] was < 1 µM; in test [2], > 100 µM.
For `Cc1cccc(C)c1NC(=O)C(CC(C)C)[n+]1ccccc1` (stereo not drawn) [Compound 108], in that order: 1 to 3 µM and > 100 µM.
Taken in the same sequence, the figures for `CCn1ccc(C)[n+]1CC(=O)Nc1c(C)cccc1C` [Compound 95] were 1 to 3 µM and > 100 µM.
Taken in the same sequence, the figures for `COC(=O)c1c(F)c[n+](CC(=O)Nc2c(C)cccc2C)cc1F` [Compound 89] were 3 to 10 µM and > 100 µM.
With `Cc1cccc(C)c1NC(=O)C[n+]1cccc(N2CCCC2)c1` [Compound 51], the values for the half-inhibitory concentration (IC50) in test [1] and in test [2] were < 1 µM and > 100 µM, respectively.
Taken in the same sequence, the figures for `CNC(=O)Cc1ccc[n+](CC(=O)Nc2c(C)cccc2C)c1` [Compound 33] were 1 to 3 µM and > 100 µM.
For `Cc1cccc(C)c1NC(=O)C(Cc1ccccc1)[n+]1ccccc1` (stereo not drawn) [Compound 106], in that order: 1 to 3 µM and > 100 µM.
Taken in the same sequence, the figures for `Cc1cccc(C)c1NC(=O)C[n+]1cccc(C(F)(F)F)c1` [Compound 66] were 1 to 3 µM and 30 to 100 µM.
For `CCOC(=O)c1cc(C)[n+](CC(=O)Nc2c(C)cccc2C)n1C` [Compound 84], the IC50 in test [1] is 3 to 10 µM; in test [2], > 100 µM.
Taken in the same sequence, the figures for `CCn1c(C)cc[n+]1CC(=O)Nc1c(C)cccc1C` [Compound 104] were 1 to 3 µM and > 100 µM.
For `Cc1cccc(C)c1NC(=O)C[n+]1cccc(S(=O)(=O)N(C)C)c1` [Compound 47], in that order: 1 to 3 µM and 10 to 30 µM.
Taken in the same sequence, the figures for `Cc1cccc(C)c1NC(=O)C[n+]1cc(F)cc(-c2ccccc2)c1` [Compound 77] were < 1 µM and 10 to 30 µM.
Regarding `CCNc1ccc[n+](CC(=O)Nc2c(C)cccc2C)c1` [Compound 50], the IC50 is 1 to 3 µM in test [1]; 30 to 100 µM and > 100 µM in test [2].
As to `CCCCn1ccc[n+]1CC(=O)Nc1c(C)cccc1C` [Compound 83], the IC50 in test [1] was 1 to 3 µM; in test [2], > 100 µM.
For `CCOC(=O)Cn1cc(C)c[n+]1CC(=O)Nc1c(C)cccc1C` [Compound 76], in that order: 3 to 10 µM and > 100 µM.
For `Cc1cccc(C)c1NC(=O)C[n+]1cccc(S(C)(=O)=O)c1` [Compound 46], in that order: 3 to 10 µM and 10 to 30 µM.
